{
  "source": "patent US6921768B2",
  "about": "“Cytostatic cerium compounds” (Faustus Forschungs Cie. Translational Cancer Research GmbH, priority 2001, dated 2005)",
  "key": {"[1]": {"test_system": "over 50 human tumour cell lines", "conditions": "48-h sulphurhodamine B-assay", "method": "First in vitro tests were carried out at the National Cancer Institute (Bethesda, Md., USA)."}, "[2]": {"test_system": "13 human tumour xenografts and 10 human tumour cell lines", "conditions": "propidium iodide assay"}, "[3]": {"conditions": "mean over more than 50 human tumour cell lines"}, "[4]": {"conditions": "mean over 13 human tumour xenografts and 10 human tumour cell lines"}},
  "data": [
    {"compound": "O.[Cl-].[Cl-].[Cl][Ce+2].c1cnc2c(c1)ccc1cccnc12.c1cnc2c(c1)ccc1cccnc12", "note": "[KP 776, trans-[aquachlorobis(1,10-phenantrolin)cerium(III)]-dichloride]", "values": [
      {"measurement": "Mean Gl50", "setting": "[1]; [3]", "result": 0.61, "unit": "µg/mL"},
      {"measurement": "Mean LC50", "setting": "[1]; [3]", "result": 39.4, "unit": "µg/mL"},
      {"measurement": "activity on single ovarian, kidney cell and parvicellular and non-parvicellular bronchial carcinoma cell lines", "setting": "[1]; result in words", "result": "Above average activities"},
      {"measurement": "selectivity among tumour cell line types", "setting": "[1]; result in words", "result": "a certain selectivity for malignant melanoma was evident"},
      {"measurement": "IC50", "setting": "[1]; read-out: Mean Gl50, mean over more than 50 human tumour cell lines", "result": 0.98, "unit": "µM"},
      {"measurement": "CC50", "setting": "[1]; read-out: Mean LC50, mean over more than 50 human tumour cell lines", "result": 63.1, "unit": "µM"},
      {"measurement": "Mean IC50", "setting": "[2]; [4]", "result": 1.20, "unit": "µg/mL"},
      {"measurement": "Mean IC90", "setting": "[2]; [4]", "result": 7.27, "unit": "µg/mL"},
      {"measurement": "tumour type with strongest effectiveness", "setting": "[2]; result in words", "result": "the strongest effectiveness was found on a melanoma (xenograft)"},
      {"measurement": "IC50", "setting": "[2]; read-out: Mean IC50, mean over 13 human tumour xenografts and 10 human tumour cell lines", "result": 1.92, "unit": "µM"},
      {"measurement": "IC90", "setting": "[2]; read-out: Mean IC90, mean over 13 human tumour xenografts and 10 human tumour cell lines", "result": 11.6, "unit": "µM"}
    ]}
  ]
}
